The values below come from paper PMC3636874, “An Antedrug of the CXCL12 Neutraligand Blocks Experimental Allergic Asthma without Systemic Effect in Mice” (The Journal of Biological Chemistry, 2013).

The structures appear in SMILES notation. In brackets after ≈: the same amount, converted by molar mass. Where only a bound is given, the exact number is not on record here.

Series [1] deals with CXCL12 action on forskolin-evoked cAMP responses via CXCR4. Nature of the series: cAMP determination with BRET sensor CAMYEL in HEK EGFP-hCXCR4 cells. The conditions noted are these: Homo sapiens; HEK293 EGFP-hCXCR4, 1 μM forskolin, 3 nM CXCL12; read-out: IC50, inhibition of CXCL12 effect on forskolin-evoked cAMP formation. Format: cell-based. On the procedure:
CXCR4 receptor coupling to adenylyl cyclase was assessed by measuring the dose-dependent inhibitory effects of chemokine with or without chalcone on forskolin-stimulated cAMP accumulation. To facilitate studies of cAMP regulation, we used a developed bioluminescence resonance energy transfer (BRET) sensor for cAMP, CAMYEL (cAMP sensor using YFP-Epac-RLuc), which can quantitatively and rapidly monitor intracellular concentrations of cAMP in cells ([47]). HEK EGFP-hCXCR4 cells were cultured to ∼80% confluence in 75-cm^2 flasks in MEM with Earle's salt supplemented with 10% fetal calf serum, 2 mM glutamine, and 1% antibiotics (penicillin/streptomycin). Cells were plated on 10-cm plates and transfected with 10 μg of CAMYEL plasmid using the calcium phosphate precipitation method. Two days later, cells were plated in 96-well solid white tissue culture plates (Greiner) at a density of 60,000 cells/well the day before cAMP assay. […] The BRET assay was carried out with a Victor Light plate reader (PerkinElmer Life Sciences). Emission signals from Renilla luciferase and YFP were measured sequentially using a BRET1 filter set (475-30/535-30). […] After 5 min, 10 μl of a Hanks' balanced salt solution of coelenterazine-H (2 μM) were added, and plates were incubated for 10 min at 37 °C before reading.
For orientation: Bioluminescence resonance energy transfer reports proximity on the nanometre scale.

Series [2] in a line: Thermodynamic solubility (HPLC). Type of series: physicochemical. To be noted: for solubility: phosphate-buffered saline, PBS pH 7.4, 21 °C, 24 h shaking (CN-chalcone 4: 2 h, estimate), read-out: solubility in saline buffer; for maximal concentration dissolved with HP-βCD: physiological solution with 10% HP-βCD, 21 °C (CN-chalcone 4: 2 h, estimate). How it is done: (§1) Solubility and stability studies were performed on a Gilson HPLC system with a photodiode array detector, an autosampler, and a Valco injector. Data acquisition and processing were performed with Trilution LC version 2.0 software. Measurements were carried out at 21 ± 1 °C. A 2.6-μm Kinetex column (50 × 4.6 mm) was used for stability studies in biological media, and a 5-μm Luna C18(2) column (50 × 4.6 mm) was used for solubility and chemical stability analysis. Both columns were purchased from Phenomenex. The injection volume was 20 μl, the mobile phase flow rate was 2 ml/min, and the following program was applied for the elution: 0–0.2 min, 0% B; 0.2–2.7 min, 0–100% B; 2.7–3.2 min, 100% B; 3.2–3.4 min, 100–0% B; 3.4–6.1 min, 0% B. Solvent B was HPLC grade acetonitrile (Sigma-Aldrich CHROMASOLV). The aqueous solvent contained 0.1% trifluoroacetic acid, and the detection wavelength was 365 nm.
Thermodynamic solubility was measured by dissolving the compounds up to saturation in a pH 7.4 phosphate-buffered saline (PBS) with the following composition: 137.5 mM NaCl, 2.7 mM KCl, 4.3 mM Na2HPO4, and 1.4 mM KH2PO4 supplemented or not with 10% hydroxypropyl-β-cyclodextrin (HP-βCD). Samples were shaken for 24 h at 21 ± 1 °C. Saturation was confirmed by the presence of undissolved powder. After ultracentrifugation, the concentration in the supernatant was measured by an HPLC procedure using a calibration curve established for each compound by diluting a 10 mM DMSO stock solution to adapted concentrations. Due to rapid degradation of CN-chalcone 4, solubility was determined after 2 h of shaking. The indicated value given for CN-chalcone 4 is thus an estimate of the solubility.

Series [3] in a line: Stability in mouse serum. Format: in vitro ADME. To be noted: 37 °C; for half-life at 20 μM: mouse, mouse serum. How it is done:
as §1
Stability of chalcones was determined in mouse serum with or without 10% HP-βCD at 37 °C up to 16 h. For each compound, the 10 mM DMSO stock solution was diluted in serum to a final concentration of 20 μM with 1% DMSO. For the measurements with HP-β-cyclodextrin, a solution of PBS (pH 7.4) containing 10% (v/w) HP-βCD was saturated with compound powder. The saturated solution was then diluted in murine serum to a final compound concentration of 20 μM. The mixture was divided into five aliquots. The incubation of each aliquot was stopped at t0 and 30 min, 1, 2, and 16 h for chalcone 4 and at t0 and 15, 30, 45, and 60 min for CN-chalcone 4 by adding one volume of ice cold acetonitrile. Samples were stirred for 3 min, sonicated for 3 min, and then centrifuged at 4 °C before HPLC injection. The percentage of remaining test compound relative to t0 was measured by monitoring the peak area on the chromatogram.

Series [4] in a line: Stability in mouse lung homogenate. To be noted: 37 °C; for half-life at 20 μM: mouse, mouse lung homogenate. Type of series: in vitro ADME. On the procedure:
as §1
Stability of chalcones was determined in mouse lung homogenate with or without HP-βCD 10% at 37 °C. Lung homogenate was prepared separately with a Fastprep® (Q-BIOgene, Illkirch, France) in PBS (one lung homogenized in 1 ml of buffer). For each compound, the incubation solutions, the sampling, and the extraction conditions were prepared as described under “Stability in Mouse Serum.”

[5] abbreviates: 20 μM, with 10% HP-βCD, read-out: Stability half-life (t1/2), murine serum, 10% β-cyclodextrine (converted).
The mark [6] stands for this setting: 20 μM, read-out: Stability half-life (t1/2), murine serum (converted).
Where [7] appears, read: with 10% HP-βCD, read-out: Stability half-life (t1/2), lung homogenate, 10% β-cyclodextrine (converted).

Turning to `COc1cc(/C=C(\C#N)C(=O)c2ccc(Cl)cc2)ccc1O` [CN-chalcone 4, (E)-2-(4-chlorobenzoyl)-3-(4-hydroxy-3-methoxyphenyl)acrylonitrile], the IC50 in series [1] came out at 6.9 ± 0.4 µM. Further, in series [2], the solubility is 16 ± 2 µM (≈ 5.02 µg/mL). In series [2], the “maximal concentration dissolved with HP-βCD” value was 493 ± 36 µM. The half-life at 20 μM in series [3] (setting [5]) is 78 min; in series [3] (setting [6]) it was 18 min; in series [3] (read-out: t½ in murine serum), 20 min; in series [4] (10% HP-βCD, read-out: half-life in lung homogenate in the presence of HP-βCD), 40 min; in series [4] (setting [7]), 36 min; in series [4] (read-out: Stability half-life (t1/2), lung homogenate (converted)) it was 24 min. The half-life at 20 μM in series [4] (read-out: t½ in lung homogenate) worked out at 25 min.
In the case of `COc1cc(/C=C/C(=O)c2ccc(Cl)cc2)ccc1O` [chalcone 4], the IC50 in series [1] was 4.1 ± 0.3 µM. For the same compound, in series [2], the solubility was 9 ± 1 µM (≈ 2.6 µg/mL) and the “maximal concentration dissolved with HP-βCD” value was 690 ± 44 µM. For the same compound, in series [3] (at 16 h), the “percentage of starting molecule recovered, murine serum” value is 96% and the “percentage of starting molecule recovered, murine serum, 10% β-cyclodextrine” value is 91%. In addition, the half-life at 20 μM in series [3] (setting [5]) is above 960 min. The half-life at 20 μM in series [3] (setting [6]) is above 960 min. Also, the “percentage of starting molecule recovered, lung homogenate, 10% β-cyclodextrine” value in series [4] (at 16 h) came to 66%. Moreover, the half-life at 20 μM in series [4] (setting [7]) was above 960 min.

Usually IC50 stands for the midpoint of a concentration-inhibition curve. Usually solubility stands for the concentration that dissolves in the medium under given conditions.
